Data taken from patent publication US20030055003A1, “Use of copper chelators to inhibit the inactivation of protein C” (priority 2001, published 2003).
Values joined by “and” are separate entries in the source; they are usually repeats but may differ in a detail not shown here. Equal values may be shown once. Where a SMILES comes first, the peptide text is derived from it.

Tests used:
[1] = target: T1, activated protein C (APC) (Homo sapiens, UniProt P04070); test: APC activity assay (Accucolor assay, modified for aqueous environment); format: biochemical
T1 construct: purchased Sigma (St. Louis, Mo.) P2200
Protocol: Materials. The human albumin N-terminus analogue, d-DAHK, was synthesized by Bowman Research, Ltd (Newport, Wales, U.K.). The assay for APC anticoagulant activity was the Accucolor™ calorimetric assay (Sigma Diagnostics, St. Louis, Mo.). […] Copper content of APC was determined by graphite furnace atomic absorption (Galbraith Laboratories, Knoxville, Tenn.).
APC activity assay. The APC assay, originally designed for plasma samples (Francis et al., Am. J. Clin. Pathol. 87, 619-625 (1987)) was modified for use in a clean, aqueous environment. […] Experiments were performed in a 96-well plate. […] Protein C substrate (2 mg/L) was then added to each well and incubated for ten minutes at 37° C. Concentrated acetic acid was added to each well to stop the reaction and the results were read at 410 nm on a microplate fluorescence reader (Model FL600, Bio-Tek Instruments, Inc., Winooski, Vt.).

[2] = Model of the blood brain barrier; format: in vitro ADME
Description: In P1, Xaa1 is most preferably Asp, Xaa2 is most preferably Ala, and Xaa3 is most preferably Lys (see above). Thus, the preferred sequences of P1 are Asp Ala His and Asp Ala His Lys [SEQ ID NO: 1]. Most preferably the sequence of P1 is Asp Ala His Lys [SEQ ID NO: 1]. Asp Ala His is the minimum sequence of the N-terminal metal-binding site of human serum albumin necessary for the high-affinity binding of Cu(lI) and Ni(II), and Lys has been reported to contribute to the binding of these metal ions to this site. […] Other preferred sequences for P, include Thr Leu His (the N-terminal sequence of human a-fetoprotein), Arg Thr His (the N-terminal sequence of human sperm protamin HP2) and HMS HMS His (a synthetic peptide reported to form extremely stable complexes with copper; see Mlynarz et al., Speciation 98: Abstracts, Apr. 21, 1998, http://www.jate.uszeged.hu/spec98/abstr/mlynar.html).

T1 sequence (P04070 212-461 limits assumed): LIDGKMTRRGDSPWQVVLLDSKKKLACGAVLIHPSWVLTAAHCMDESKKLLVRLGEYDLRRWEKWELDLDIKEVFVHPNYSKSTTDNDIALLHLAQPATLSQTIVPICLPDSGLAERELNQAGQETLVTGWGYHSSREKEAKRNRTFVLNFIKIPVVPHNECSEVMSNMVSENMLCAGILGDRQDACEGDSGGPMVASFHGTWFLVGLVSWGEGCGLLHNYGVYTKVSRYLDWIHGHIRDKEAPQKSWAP
T1 sequence (P04070 43-197 limits assumed): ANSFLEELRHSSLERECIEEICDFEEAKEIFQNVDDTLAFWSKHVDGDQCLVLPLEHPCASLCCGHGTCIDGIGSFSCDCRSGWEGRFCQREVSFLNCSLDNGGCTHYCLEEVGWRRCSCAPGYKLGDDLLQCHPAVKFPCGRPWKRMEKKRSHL

Question: With D-Asp D-Ala D-His D-Lys [d-DAHK] as the compound, how does the “increase over baseline APC activity, chelator alone” value ([1]; 40 μM chelator with APC 2 mg/L, no added copper, 30 min 37° C., mean±SD) read?
Answer: 18.2%±13.0

Question: What about the “protection of copper-induced inhibition of APC, lower d-DAHK:CuCl2 ratios” value ([1]; d-DAHK:CuCl2 ratios below 2:1 (1:4, 1:2, 1:1)) of the same compound?
Answer: no significant protection

Question: And the “increase of APC activity over baseline, d-DAHK:CuCl2 2:1” value ([1]; ratio 2:1 d-DAHK:CuCl2, 30 min 37° C.)?
Answer: 12.9%±1.1

Question: And the “increase of APC activity over baseline, d-DAHK:CuCl2 4:1” value ([1]; ratio 4:1 d-DAHK:CuCl2, 30 min 37° C.)?
Answer: 14.8%±12.7

Question: Which “passage through a model of the blood brain barrier” value [2] does the source give for C[C@H](NC(=O)[C@@H](N)CC(=O)O)C(=O)N[C@@H](Cc1c[nH]cn1)C(=O)N[C@@H](CCCCN)C(=O)O [Asp Ala His Lys] (H-DAHK-OH; N-terminus and C-terminus assumed) here?
Answer: pass through a model of the blood brain barrier

Question: For [Cl][Cu][Cl] [CuCl2, reference compound], which “overall mean decrease in APC activity compared to baseline” value ([1]; 10 μM CuCl2, mean of two separate experiments) is on record?
Answer: 26.0%±11.8

Question: What about the “decrease in APC activity compared to baseline” value ([1]; 10 μM CuCl2 with APC 2 mg/L, 30 min 37° C., single experiment, mean±SD, n=3) of the same compound?
Answer: 27.9%±15.5 and 24.1%±9.7
